# From ChEMBL document CHEMBL5512620, “Design and synthesis of forsythin derivatives as anti-inflammatory agents for acute lung injury” (Eur J Med Chem, 2024)
# Test system: RAW264.7
# Assay: Cytotoxicity activity mouse RAW264.7 cells assessed as effect on cell viability at 25 uM incubated for 24 hrs by MTT assay
# Assay type: toxicity, cell-based
# Conditions: raw264.7, 24 h
row,SMILES,Activity
1,COc1ccc([C@@H]2OC[C@H]3[C@@H]2CO[C@@H]3c2ccc(O[C@H]3O[C@H](COC(=O)c4cn(-c5ccc(C)cc5)nn4)[C@@H](O)[C@H](O)[C@H]3O)c(OC)c2)cc1OC,Non-Toxic
2,COc1ccc([C@@H]2OC[C@H]3[C@@H]2CO[C@@H]3c2ccc(O[C@H]3O[C@H](COC(=O)CNC(=O)OC(C)(C)C)[C@@H](O)[C@H](O)[C@H]3O)c(OC)c2)cc1OC,Non-Toxic
3,COc1ccc([C@@H]2OC[C@H]3[C@@H]2CO[C@@H]3c2ccc(O[C@H]3O[C@H](COC(=O)/C=C/c4ccccc4)[C@@H](O)[C@H](O)[C@H]3O)c(OC)c2)cc1OC,Non-Toxic
4,COc1ccc(/C=C/C(=O)OC[C@H]2O[C@H](Oc3ccc([C@H]4OC[C@H]5[C@@H]4CO[C@H]5c4ccc(OC)c(OC)c4)cc3OC)[C@H](O)[C@@H](O)[C@@H]2O)cc1,Non-Toxic
5,COc1ccc([C@@H]2OC[C@H]3[C@@H]2CO[C@@H]3c2ccc(O[C@H]3O[C@H](COC(=O)[C@H](CC(C)C)NC(=O)OC(C)(C)C)[C@@H](O)[C@H](O)[C@H]3O)c(OC)c2)cc1OC,Non-Toxic
6,COc1ccc([C@@H]2OC[C@H]3[C@@H]2CO[C@@H]3c2ccc(O[C@H]3O[C@H](COC(=O)[C@H](Cc4c[nH]c5ccccc45)NC(=O)OC(C)(C)C)[C@@H](O)[C@H](O)[C@H]3O)c(OC)c2)cc1OC,Non-Toxic
7,COc1ccc([C@H]2OC[C@@H]3[C@H]2CO[C@@H]3c2ccc(O[C@@H]3O[C@@H](COC(=O)c4cc5ccccc5cn4)[C@H](O)[C@@H](O)[C@@H]3O)c(OC)c2)cc1OC (stereo in doubt),Non-Toxic
8,COc1ccc([C@H]2OC[C@@H]3[C@H]2CO[C@@H]3c2ccc(O[C@@H]3O[C@@H](COC(=O)c4nccc5ccccc45)[C@H](O)[C@@H](O)[C@@H]3O)c(OC)c2)cc1OC (stereo in doubt),Non-Toxic
